Experimental data: patent US11154587B2, “Use of peptides to stimulate the immune system” (DIACCURATE, priority 2015, dated 2021)
Entries after “also recorded” stand apart in the source; their conditions may differ. Where a SMILES comes first, the peptide text is derived from it. [ ]: non-standard residue; d: D form. 2Nal = N[C@@H](Cc1ccc2ccccc2c1)C(=O)O

How the values were obtained:
Recombinant PLA2G1B = target: T1, Recombinant PLA2G1B (Homo sapiens, UniProt P04054); test: Bioassay: recombinant PLA2GIB-mediated inhibition of IL-7-induced nuclear translocation of phospho STAT5 in CD4 T cells (STED microscopy); assay type: cell-based
T1 construct: sPLA2GIB was produced in E. Coli; Inclusion bodies were solubilized in urea and afterwards renatured; made in house; host or cells: E. coli
T1 sequence (P04054 23-148): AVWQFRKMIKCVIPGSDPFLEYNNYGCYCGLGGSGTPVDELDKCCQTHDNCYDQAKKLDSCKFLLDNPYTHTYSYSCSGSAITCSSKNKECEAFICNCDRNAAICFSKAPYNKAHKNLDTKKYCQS
Experimental: FIG. 1: Peptide I inhibits sPLA2G1B: Recombinant PLA2G1B (75 nanoM) was first exposed 30 mn to indicated concentrations of Peptide I. The mixture was then applied in the bioassay described in Materials and Methods. % inhibition of IL-7-induced nuclear translocation of phospho STAT5 was measured by STED microscopy. The results of two experiments are shown.
FIG. 2: Calculation of IC50 of Peptide I: Experimental data were analyzed by Prism software in order to precisely calculate the IC50.
sPLA2GIB was produced in E. Coli. Inclusion bodies were solubilized in urea and afterwards renatured. sPLA2GIB was further purified by HPLC. Homogeneity of the preparations was verified by MassSpectrometry (Malditoff). The specific activity of the enzyme was always measured and compared to standard preparations.
(§1) Inhibition of IL-7-induced phosphorylated STAT5 nuclear translocation (NTpSTAT) was measured as follows: VP plasma (5 or 10%) was first incubated with purified HD CD4 T cells (20 min) before stimulation by IL-7 (2 nM, 15 min.). Cells were then plated on polylysine coated glass slides before fixation by PFA (1.5%) and permeabilization by methanol (90% at −20° C.). pSTAT5 was then stained by rabbit anti-STAT5 and labeled with goat anti-rabbit-Atto642. The cells were analyzed by pulsed STED microscopy and the number of nuclei expressing pSTAT5 were counted.
We first investigated the effects of different doses of Peptide I on the biological activity of recombinant PLA2GIB as tested in the bioassay described in Materials and Methods. […] The experiment was repeated twice. From the experimental data we derived the corresponding theoretical curve that gives the IC50. For Peptide I, IC 50 is about 4.9 microM (FIG. 2).

[1] = target: T2, PLA2 GIB contained in the plasma of viremic patients (Homo sapiens, UniProt P04054); test: Bioassay: inhibition of IL-7-induced NTpSTAT5 in healthy donor CD4 T cells by plasma/sera of viremic HIV-infected patients; assay type: cell-based
T2 construct: CD4 lymphocytes purified from healthy donors were exposed to sera from viremic HIV-infected patients at 1% or 3% dilution; from tissue; host or cells: plasma/sera of viremic HIV-infected patients
T2 sequence (P04054 23-148): as above
Experimental: FIG. 3: Peptide I restores the activity of CD4 lymphocytes: CD4 lymphocytes purified from healthy donors were exposed to sera from viremic HIV-infected patients at 1% or 3% dilution. […] Five sera were tested and the results are given as the median+/−SD.
Viremic patients (VP) included in the study had been HIV-positive for more than one year. […] All blood samples from VP were drawn at Hôpital Bicêtre or Centre Hospitalier de Gonesse.
as §1
We have shown that PLA2 GIB contained in the plasma of viremic patients induces a blockade of IL-7-induced nuclear translocation of phospho STAT5 (NT pSTAT5). […] Here we tested the effects of Peptide I on the capacity of the sera from VP to block IL-7-induced NTpSTAT5.
The effect of plasma from various HIV viremic patients (at least 5) were titrated on the inhibition of IL-7-induced NTpSTAT5. […]

## CC(C)C[C@@H]1NC(=O)[C@H](Cc2ccc3ccccc3c2)NC(=O)[C@H](CCCNC(=N)N)NC(=O)[C@H](Cc2ccc3ccccc3c2)NC(=O)[C@H](CO)NC1=O [Peptide I, cyclic(2-NaphthylAla-Leu-Ser-2-NaphthylAla-Arg)] (cyclo([2Nal]LS[2Nal]R); ring closure inferred)
Recombinant PLA2G1B; 5 microM Peptide I
  inhibitory effect on recombinant PLA2GIB activity: effective
Recombinant PLA2G1B; 10 microM Peptide I
  inhibitory effect on recombinant PLA2GIB activity: very strong
Recombinant PLA2G1B; recombinant PLA2G1B 75 nanoM exposed 30 mn to Peptide I, calculated with Prism from two experiments, read-out: IC50 (inhibition of recombinant PLA2GIB biological activity)
  IC50: ~4.9 µM
Recombinant PLA2G1B; recombinant pure enzyme in serum free buffer
  maximum inhibition (plateau) with the recombinant enzyme: around 80%
[1]; 15 microM Peptide I, sera from viremic HIV-infected patients at 1% or 3% dilution, five sera
  reversal of sera-induced inhibition of IL-7-induced nuclear translocation of pSTAT5: totally reversed this inhibition; also recorded: completely reverted the activity of the sera
[1]; plasma of viremic patients
  inhibition achieved when the plasma is used: around 100%
